The test system of data set [1] is sigma-1 receptor (σ1R). The data set can be described thus: σ1R radioligand binding ([3H](+)-pentazocine). The conditions noted are these: ratio of σ2R Ki to σ1R Ki. On the set-up: species or system guinea pig.
The target of data set [2] is T1, sigma-1 receptor (σ1R) (Cavia porcellus, UniProt Q60492).
T1 construct: The thawed membrane preparation of the guinea pig brain cortex was incubated; from tissue; host or cells: male Dunkin-Hartley guinea pig brain cortex membranes
The data set can be described thus: σ1R radioligand binding ([3H](+)-pentazocine). Conditions: read-out: σ1R Ki [nM] x̄ [CI 95%]; mean [CI 95%]. On the set-up: species or system guinea pig.

The target of data set [3] is T2, human recombinant histamine H3R (Homo sapiens, UniProt Q9Y5N1).
T2 construct: expressed in transfected cells
The data set is described as follows: hH3R radioligand binding ([3H]Nα-methylhistamine depletion assay). The conditions noted are these: read-out: hH3R Ki [nM] x̄ [CI 95%]; mean [CI 95%]; HEK-293 cells.

For another data set, the target named is T3, sigma-2 receptor (σ2R) (Rattus norvegicus, UniProt Q5U3Y7).
T3 construct: The thawed membrane preparation of rat liver was incubated; from tissue; host or cells: Sprague-Dawley rat liver membranes
T3 sequence (Q5U3Y7 1-176): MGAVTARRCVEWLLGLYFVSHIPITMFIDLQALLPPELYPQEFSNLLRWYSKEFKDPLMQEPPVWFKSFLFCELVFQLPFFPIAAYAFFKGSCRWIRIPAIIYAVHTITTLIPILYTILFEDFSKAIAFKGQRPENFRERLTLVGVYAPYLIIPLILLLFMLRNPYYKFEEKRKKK
The data set can be described thus: σ2R radioligand binding ([3H]DTG). The conditions noted are these: read-out: σ2R Ki [nM] x̄ [CI 95%]; mean [CI 95%].

A short description of data set [4]: pKa determination by potentiometric titration. Conditions: for pKa: aqueous solution, experimental, potentiometric titration. It is filed as physicochemical. Here is the method: In addition, we tested the amino alcohol fragments of these compounds to carefully monitor the influence of individual protonated nitrogen atoms on the obtained pKa values (Figure 4). […] Based on a previously modified potentiometric procedure,[27],[28] a series of titrations were performed, and the pKa values were determined using the Kostrowicki and Liwo algorithm.[29],[30] […] That explains the surprising result of free base crystallization attempts where iodide salt was obtained instead of the neutral form. On the other hand, in the same environment, KSK94 exists in two forms: the monoprotonated form [HL^+] (20.56%) and the free ligand [L] (77.72%, Figure 5). […] KSK68 can be characterized as a basic ligand with pKa1 = 4.9 (pyridine N) and pKa2 = 8.4 (piperidine N). The pKa values are consistent with those determined by the same procedure for the corresponding amino alcohol 3-(4-(pyridin-4-yl)piperidin-1-yl)propan-1-ol (Figure 4). […] A similarly low pKa2 value for the N7 piperazine nitrogen atom was also determined for the corresponding amino alcohol 3-(4-(pyridin-4-yl)piperazin-1-yl)propan-1-ol (Figure 4), which is in agreement with the value obtained for 1-phenyl-4-methyl piperazine reported in the literature.[31] […] The lowest value was determined for 4-nitrophenyl, and the highest was for 2-methylphenyl derivatives.[32]
The potentiometric microtitration was performed in a thermostated 20 mL cell using a CerkoLab microtitration unit fitted with a pH electrode (Hydromet ERH-13-6). The electrode was calibrated with the use of buffer solutions: pH = 4.00, 7.00, and 10.00. Titrant T (0.1 M KOH) was standardized according to the general analytical procedure and protected from carbon dioxide. Double distilled water with a conductivity of about 0.18 mS/cm was used to prepare all aqueous solutions. DMSO (HPLC grade, 99.5%) was supplied by Sigma Aldrich. The concentration of the titrant solution (D) was 0.0025–0.005 M. The solubilization procedure was follows: The appropriate amount of KSK compound was dissolved in 1 mL 0.1 M HCl and 1 mL DMSO to prepare a 25 mL stock solution. The developed solubilization system can be recommended for poorly soluble derivatives. The analytical procedure was a follows: volume V0 = 4.5 mL of titrant D was titrated with 0.1 M titrant T using the CerkoLab System equipped with a 5 mL syringe pump.

Another data set concerns mice. The data set is described as follows: loperamide-induced antinociception (paw pressure, struggle response latency). Format: in vivo, Female CD1 mice. The conditions noted are these: for reversal of potentiation of loperamide-induced antinociception by S1RA and 12: PRE-084 75 μg i.pl., naloxone-methiodide 2 mg/kg s.c.
Data set [5] can be described thus: parallel artificial membrane permeability assay (PAMPA). Format: in vitro ADME. Conditions: 100 μM in PBS pH 7.4, RT, read-out: Pe (permeability coefficient).
The mark [6] stands for this setting: Figure 5, species distribution from titration curves.
[7] abbreviates: aqueous solution at physiological pH.

SMILES strings stand for the structures. Where a name gives a salt, the structure may show the parent alone. Read-outs that look alike come from different tables or passages of the source.

What is called Ki is a dissociation constant, usually derived from enzyme kinetics or from competition with a known ligand.

T1 sequence (Q60492 whole entry): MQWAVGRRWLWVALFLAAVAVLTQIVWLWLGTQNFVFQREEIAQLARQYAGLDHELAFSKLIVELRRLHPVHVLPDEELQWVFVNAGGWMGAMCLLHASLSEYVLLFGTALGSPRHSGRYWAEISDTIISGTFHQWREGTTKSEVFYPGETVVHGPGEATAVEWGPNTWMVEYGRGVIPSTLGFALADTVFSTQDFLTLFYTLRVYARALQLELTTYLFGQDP
T2 sequence (Q9Y5N1 whole entry): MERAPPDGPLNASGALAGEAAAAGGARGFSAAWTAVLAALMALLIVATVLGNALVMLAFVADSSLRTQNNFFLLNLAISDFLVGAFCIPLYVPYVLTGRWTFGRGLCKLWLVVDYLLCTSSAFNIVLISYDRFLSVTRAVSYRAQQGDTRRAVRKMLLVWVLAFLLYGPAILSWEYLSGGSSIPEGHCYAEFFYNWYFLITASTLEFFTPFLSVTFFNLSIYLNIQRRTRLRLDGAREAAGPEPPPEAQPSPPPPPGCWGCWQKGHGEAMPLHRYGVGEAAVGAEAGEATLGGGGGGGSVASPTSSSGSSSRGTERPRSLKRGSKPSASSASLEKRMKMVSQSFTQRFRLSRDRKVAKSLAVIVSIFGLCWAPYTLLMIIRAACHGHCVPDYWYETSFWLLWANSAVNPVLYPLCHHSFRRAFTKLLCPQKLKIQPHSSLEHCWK

Turning to `c1ccc(-c2ccc(OCCCCN3CCCCC3)cc2)cc1` [Compound 9, 1-(4-([1,1′-Biphenyl]-4-yloxy)butyl)piperidine Oxalate], the σ2/σ1 ratio in the data set with sigma-1 receptor (σ1R) [1] is reported as 0.3. In addition, the Ki on sigma-1 receptor (σ1R) [2] was found to be 95 nM; in data set [3] it was 22 nM; at sigma-2 receptor (σ2R), 33 nM.

Turning to `OCCCN1CCNCC1` [3-(piperazin-1-yl)propan-1-ol, reference compound], the pKa in data set [4] (read-out: pKa1) is 4.52; in data set [4] (read-out: pKa2), 9.14.

As to `N#Cc1ccc(-c2ccc(OCCCN3CCCCC3)cc2)cc1.O=C(O)C(=O)O` [Compound 5, 4′-(3-(Piperidin-1-yl)propoxy)-[1,1′-biphenyl]-4-carbonitrile Oxalate], the σ2/σ1 ratio with sigma-1 receptor (σ1R) [1] is recorded as 1.7. Moreover, the values for the Ki at sigma-1 receptor (σ1R) [2] and at sigma-2 receptor (σ2R) were 28 nM and 47 nM, respectively.

As to `CC(C)(C)c1ccc(OCCCCN2CCN(c3cnccn3)CC2)cc1` [Compound 16, 2-(4-(4-(4-(tert-Butyl)phenoxy)butyl)piperazin-1-yl)pyrazine Oxalate], the σ2/σ1 ratio with sigma-1 receptor (σ1R) [1] is recorded as 3.6. Further, the inhibition constant Ki on sigma-1 receptor (σ1R) [2] amounted to 7.6 nM; on sigma-2 receptor (σ2R), 27 nM.

Turning to `C=CC[N+]1(C)CC[C@]23c4c5ccc(O)c4O[C@H]2C(=O)CC[C@@]3(O)[C@H]1C5` (stereo partly drawn) [naloxone-methiodide], the “reversal of potentiation of loperamide-induced antinociception by S1RA and 12” value in the data set with mice was “the effect of S1RA and 12 was also reversed”.

Consider `OCCCN1CCC(c2ccncc2)CC1` [3-(4-(pyridin-4-yl)piperidin-1-yl)propan-1-ol, reference compound], for which the figures for the pKa in data set [4] (read-out: pKa1) and in data set [4] (read-out: pKa2) were 4.91 and 8.84, respectively.

For the molecule `c1ccc(Oc2ccc(OCCCN3CCC(c4ccncc4)CC3)cc2)cc1` [Compound 13, 4-(1-(3-(4-Phenoxyphenoxy)propyl)piperidin-4-yl)pyridine Oxalate], the σ2/σ1 ratio with sigma-1 receptor (σ1R) [1] is on record as 0.7. Moreover, the Ki at sigma-1 receptor (σ1R) [2] was determined as 5.6 nM; in data set [3], 24.2 nM; on sigma-2 receptor (σ2R), 4 nM.

As for `N#Cc1ccc(-c2ccc(OCCCN3CCN(c4ccncc4)CC3)cc2)cc1` [KSK94], in data set [4] (setting [6]), the “pK of equilibrium H2L+2 = H+ + HL+” value was 6.25 and the “pK of equilibrium HL+ = H+ + L0” value turned out to be 6.65. In data set [4] (setting [7]), the “free ligand [L]” value is on record as 77.72% and the “monoprotonated form [HL+]” value is 20.56%. In data set [4] (read-out: pKa1), the pKa is 6.25. Moreover, the pKa in data set [4] (read-out: pKa2) is around 1. In addition, the pKa in data set [4] (read-out: pKa3) stood at 6.65.

As to `c1ccc(-c2ccc(OCCCN3CCCC3)cc2)cc1` [Compound 4, 1-(3-([1,1′-Biphenyl]-4-yloxy)propyl)pyrrolidine Oxalate], the σ2/σ1 ratio in the data set with sigma-1 receptor (σ1R) [1] is recorded as 2.7. Moreover, the inhibitory constant (Ki) was 24 nM on sigma-1 receptor (σ1R) [2], 19.5 nM in data set [3] and 65 nM at sigma-2 receptor (σ2R).

Turning to `c1ccc(Cc2ccc(OCCCN3CCCCC3)cc2)cc1` [Compound 8, 1-(3-(4-Benzylphenoxy)propyl)piperidine Oxalate], in the data set with sigma-1 receptor (σ1R) [1], the σ2/σ1 ratio worked out at 8.5. Besides, the inhibitory constant (Ki) amounted to 5.5 nM at sigma-1 receptor (σ1R) [2] and 47 nM on sigma-2 receptor (σ2R).

As for `CC1CCCN(CCCOc2ccc(-c3ccccc3)cc2)C1` (stereo not drawn) [Compound 1, 1-(3-([1,1′-Biphenyl]-4-yloxy)propyl)-3-methylpiperidine Oxalate], the σ2/σ1 ratio with sigma-1 receptor (σ1R) [1] amounted to 11.3. Besides, the values for the Ki (on sigma-1 receptor (σ1R) [2]; in data set [3]; on sigma-2 receptor (σ2R)) were 1.5 nM, 31 nM and 17 nM, respectively.

In the case of `CC1CCN(CCCOc2ccc(-c3ccccc3)cc2)CC1` [Compound 2, 1-(3-([1,1′-Biphenyl]-4-yloxy)propyl)-4-methylpiperidine Oxalate], the σ2/σ1 ratio with sigma-1 receptor (σ1R) [1] amounted to 6.7. Besides, the inhibition constant Ki on sigma-1 receptor (σ1R) [2] is 2.4 nM; in data set [3] it was 10.3 nM; on sigma-2 receptor (σ2R), 16 nM.

Turning to `c1ccc(Oc2ccc(OCCCN3CCCCC3)cc2)cc1` [Compound 6, 1-(3-(4-Phenoxyphenoxy)propyl)piperidine Oxalate], the σ2/σ1 ratio with sigma-1 receptor (σ1R) [1] was determined as 5.7. In addition, the Ki turned out to be 18 nM at sigma-1 receptor (σ1R) [2], 2.7 nM in data set [3] and 103 nM at sigma-2 receptor (σ2R).

Take `c1ccc(Cc2ccc(OCCCN3CCC(c4ccncc4)CC3)cc2)cc1` [Compound 15, 4-(1-(3-(4-Benzylphenoxy)propyl)piperidin-4-yl)pyridine Oxalate]: the σ2/σ1 ratio in the data set with sigma-1 receptor (σ1R) [1] is on record as 3.5. Also, the Ki at sigma-1 receptor (σ1R) [2] was 2.8 nM; in data set [3], 76.1 nM; at sigma-2 receptor (σ2R), 9.9 nM.

Turning to `OCCCN1CCCCC1` [3-(piperidin-1-yl)propan-1-ol, reference compound], the pKa in data set [4] (read-out: pKa) came to 9.73.

For `CN(C)C(=O)C(CCN1CCC(O)(c2ccc(Cl)cc2)CC1)(c1ccccc1)c1ccccc1` [loperamide], the “effect of loperamide alone on struggle response latency” value in the data set with mice (4 mg/kg s.c.) is recorded as “minimal (nonsignificant) increase in the struggle response latency”.

Take `c1ccc(Nc2ccc(OCCCN3CCC(c4ccncc4)CC3)cc2)cc1` [Compound 14, N-Phenyl-4-(3-(4-(pyridin-4-yl)piperidin-1-yl)propoxy)aniline Oxalate]: the σ2/σ1 ratio in the data set on sigma-1 receptor (σ1R) [1] was found to be 8.8. Besides, the Ki on sigma-1 receptor (σ1R) [2] turned out to be 3.3 nM; in data set [3] it was 69 nM; at sigma-2 receptor (σ2R), 29 nM.

In the case of `Cl.O=C(OCCN1CCOCC1)C1(c2ccccc2)CCCCC1` [PRE-084, 2-[4-morpholinethyl]1-phenylcyclohexanecarboxylate hydrochloride], in the data set on mice, the “reversal of potentiation of loperamide-induced antinociception by S1RA and 12” value is “markedly reverse the effect of these compounds on loperamide-induced antinociception”.

On to `OCCCN1CCN(c2ccncc2)CC1` [3-(4-(pyridin-4-yl)piperazin-1-yl)propan-1-ol, reference compound], for which the pKa is 6.1 in data set [4] (read-out: pKa1), 1 in data set [4] (read-out: pKa2) and 8.82 in data set [4] (read-out: pKa3).

For `CCN1CCCC1CNC(=O)c1cc(S(N)(=O)=O)ccc1OC` (stereo not drawn) [sulpiride, reference compound], the Papp at 5 h, 100 µM in data set [5] was found to be 0.05 ×10⁻⁶ cm/s.

Source of the values: article PMC10388327, “Dual Piperidine-Based Histamine H3 and Sigma-1 Receptor Ligands in the Treatment of Nociceptive and Neuropathic Pain” (Journal of Medicinal Chemistry, 2023).
